Measured values published in patent US6737417B2, “Compounds with hydroxycarbonyl-halogenoalkyl side chain” (Chugai Seiyaku Kabushiki Kaisha, priority 1999, dated 2004).

The compounds below were run on ovariectomized mice administered with 17β-estradiol (assay: Anti-estrogenic activity (oral administration): inhibition of estradiol-induced increase in uterine weight in ovariectomized mice). Conditions: 10 mg/kg p.o., once a day for 3 days, ovariectomized ICR mice given 17β-estradiol-benzoate 0.1 μg/mouse s.c. for 3 days.
Assay type: in vivo
Method: Test compounds were assayed for their oral anti-estrogenic activity in the following manner. In this experiment, the compounds prepared in Examples 5, 12, 14-33, 37 and 38 were used as test compounds. As control compounds, those having the same structures in the parent scaffold as the test compounds were used, that is, ZM189154 for Examples 5 and 27-33 and ICI182780 for Examples 12, 14-26, 37 and 38.
In this experiment, each of the test and control compounds was suspended in 5% arabic gum solution and orally administered for 3 days on a once-a-day basis. After 24 hours from the last administration, the test animals were sacrificed and the uteri were removed and weighed.

Q: Which “Inhibition (%)” value does the source give for `C[C@]1(c2ccc(O)cc2)CCc2cc(O)ccc2[C@H]1CCCCCCCCC[S+]([O-])CCCC(F)(F)C(F)(F)F` (some centres unmarked) [ZM189154, reference compound] here?
A: The value was 42%.

Same assay, conditions: 10 mg/kg p.o., once a day for 3 days, ovariectomized ICR mice given 17β-estradiol-benzoate 0.1 μg/mouse s.c. for 3 days, 10 mg/kg

Q: Which “Inhibition (%)” value does the source give for `C[C@]12C[C@H](CCCCCCCCC(CCCCCC(F)(F)C(F)(F)F)C(=O)O)[C@@H]3c4ccc(O)cc4CC[C@H]3[C@@H]1CC[C@@H]2O` (stereo partly drawn) [Example 26, 10-(3,17β-dihydroxyestra-1,3,5(10)-trien-11β-yl)-2-(6,6,7,7,7-pentafluoroheptyl)decanoic Acid] here?
A: Its value is 96%.

Same assay, conditions: po, 24 h, 10 mg/kg p.o., once a day for 3 days, ovariectomized ICR mice given 17β-estradiol-benzoate 0.1 μg/mouse s.c. for 3 days

Q: Which inhibition in vivo at 10 mg/kg does the source give for `C[C@]12CC[C@@H]3c4ccc(O)cc4C[C@@H](CCCCCCCCCC(CCC(F)(F)C(F)(F)C(F)(F)C(F)(F)F)C(=O)O)[C@H]3[C@@H]1CC[C@@H]2O` (stereo partly drawn) [Example 19, 11-[3,17β-dihydroxyestra-1,3,5(10)-trien-7α-yl]-2-(3,3,4,4,5,5,6,6,6-nonafluorohexyl)undecanoic Acid] here?
A: Its inhibition in vivo at 10 mg/kg is 92%.

Q: Which inhibition in vivo at 10 mg/kg does the source give for `C[C@]12C[C@H](CCCCCCCCC(CCCC(F)(F)C(F)(F)C(F)(F)C(F)(F)F)C(=O)O)[C@@H]3c4ccc(O)cc4CC[C@H]3[C@@H]1CC[C@@H]2O` (stereo partly drawn) [Example 22, 10-(3,17β-dihydroxyestra-1,3,5(10)-trien-11β-yl)-2-(4,4,5,5,6,6,7,7,7-nonafluoroheptyl)decanoic Acid] here?
A: Its inhibition in vivo at 10 mg/kg is 98%.

Q: How did the inhibition in vivo at 10 mg/kg turn out when `O=C(O)C(CCCCCCCCCCc1c(-c2ccc(O)c(F)c2)ccc2cc(O)ccc12)CCCC(F)(F)C(F)(F)F` (centres unmarked) [Example 33, 12-[2-(3-fluoro-4-hydroxyphenyl)-6-hydroxynaphth-1-yl]-2-(4,4,5,5,5-pentafluoropentyl)dodecanoic Acid] was run?
A: Its inhibition in vivo at 10 mg/kg is 64%.

Q: `O=C(O)C(CCCCCCCCCCc1c(-c2ccc(O)cc2F)ccc2cc(O)ccc12)CCCC(F)(F)C(F)(F)F` (centres unmarked) [Example 31, 12-[2-(2-fluoro-4-hydroxyphenyl)-6-hydroxynaphth-1-yl]-2-(4,4,5,5,5-pentafluoropentyl)dodecanoic Acid] was tested. Which inhibition in vivo at 10 mg/kg did it give?
A: Its inhibition in vivo at 10 mg/kg is 75%.

Q: Which inhibition in vivo at 10 mg/kg does the source give for `O=C(O)C(CCCCCCCCCc1c(-c2ccc(O)cc2)ccc2cc(O)ccc12)CCC(F)(F)C(F)(F)C(F)(F)C(F)(F)F` (centres unmarked) [Example 28, 11-[6-hydroxy-2-(4-hydroxyphenyl)naphth-1-yl]-2-(3,3,4,4,5,5,6,6,6-nonafluorohexyl)undecanoic Acid] here?
A: Its inhibition in vivo at 10 mg/kg is 68%.

Q: `Cc1cc(O)ccc1-c1ccc2cc(O)ccc2c1CCCCCCCCCCC(CCCC(F)(F)C(F)(F)F)C(=O)O` (centres unmarked) [Example 29, 12-[6-hydroxy-2-(4-hydroxy-2-methylphenyl)-naphth-1-yl]-2-(4,4,5,5,5-pentafluoropentyl)dodecanoic Acid] was tested. Which inhibition in vivo at 10 mg/kg did it give?
A: Its inhibition in vivo at 10 mg/kg is 80%.

Q: For `C[C@]12C[C@H](CCCCCCCCC(CCCCCC(F)(F)C(F)(F)F)C(=O)O)[C@@H]3c4ccc(O)cc4CC[C@H]3[C@@H]1CC[C@@H]2O` (stereo partly drawn) [Example 12, 10-[3,17β-dihydroxyestra-1,3,5(10)-trien-11β-yl]-2-(6,6,7,7,7-pentafluoroheptyl)decanoic Acid], which inhibition in vivo at 10 mg/kg is on record?
A: The inhibition in vivo at 10 mg/kg was 97%.

Q: Which inhibition in vivo at 10 mg/kg does the source give for `C[C@]12CC[C@@H]3c4ccc(O)cc4C[C@@H](CCCCCCCC[C@@H](CCCC(F)(F)C(F)(F)C(F)(F)C(F)(F)F)C(=O)O)[C@H]3[C@@H]1CC[C@@H]2O` [Example 38, (2S)-10-(3,17β-dihydroxyestra-1,3,5(10)-trien-7α-yl)-2-(4,4,5,5,6,6,7,7,7-nonafluoroheptyl)decanoic Acid] here?
A: Its inhibition in vivo at 10 mg/kg is 100%.

Q: For `C[C@]12CC[C@@H]3c4ccc(O)cc4C[C@@H](CCCCCCCCCC(CCCC(F)(F)C(F)(F)C(F)(F)C(F)(F)F)C(=O)O)[C@H]3[C@@H]1CC[C@@H]2O` (stereo partly drawn) [Example 18, 11-[3,17β-dihydroxyestra-1,3,5(10)-trien-7α-yl]-2-(4,4,5,5,6,6,7,7,7-nonafluoroheptyl)undecanoic Acid], which inhibition in vivo at 10 mg/kg is on record?
A: Its inhibition in vivo at 10 mg/kg is 85%.

Q: `C[C@]12CC[C@@H]3c4ccc(O)cc4C[C@@H](CCCCCCCCC(CCC(F)(F)C(F)(F)C(F)(F)C(F)(F)F)C(=O)O)[C@H]3[C@@H]1CC[C@@H]2O` (stereo partly drawn) [Example 16, 10-[3,17β-dihydroxyestra-1,3,5(10)-trien-7α-yl]-2-(3,3,4,4,5,5,6,6,6-nonafluorohexyl)decanoic Acid] was tested. Which inhibition in vivo at 10 mg/kg did it give?
A: Its inhibition in vivo at 10 mg/kg is 98%.

Q: Which inhibition in vivo at 10 mg/kg does the source give for `C[C@]12C[C@H](CCCCCCCCC(CCC(F)(F)C(F)(F)C(F)(F)C(F)(F)F)C(=O)O)[C@@H]3c4ccc(O)cc4CC[C@H]3[C@@H]1CC[C@@H]2O` (stereo partly drawn) [Example 23, 10-(3,17β-dihydroxyestra-1,3,5(10)-trien-11β-yl)-2-(3,3,4,4,5,5,6,6,6-nonafluorohexyl)decanoic Acid] here?
A: Its inhibition in vivo at 10 mg/kg is 98%.

Q: `C[C@]12C[C@H](CCCCCCCCCC(CCCC(F)(F)C(F)(F)C(F)(F)C(F)(F)F)C(=O)O)[C@@H]3c4ccc(O)cc4CC[C@H]3[C@@H]1CC[C@@H]2O` (stereo partly drawn) [Example 25, 11-(3,17β-dihydroxyestra-1,3,5(10)-trien-11β-yl)-2-(4,4,5,5,6,6,7,7,7-nonafluoroheptyl)undecanoic Acid] was tested. Which inhibition in vivo at 10 mg/kg did it give?
A: The inhibition in vivo at 10 mg/kg was 93%.

Q: How did the inhibition in vivo at 10 mg/kg turn out when `CCc1cc(O)ccc1-c1ccc2cc(O)ccc2c1CCCCCCCCCCC(CCCC(F)(F)C(F)(F)F)C(=O)O` (centres unmarked) [Example 30, 12-[2-(2-ethyl-4-hydroxyphenyl)-6-hydroxynaphth-1-yl]-2-(4,4,5,5,5-pentafluoropentyl)dodecanoic Acid] was run?
A: The inhibition in vivo at 10 mg/kg was 58%.

Q: For `C[C@]12C[C@H](CCCCCCCCC(CCCC(F)(F)C(F)(F)F)C(=O)O)[C@@H]3c4ccc(O)cc4CC[C@H]3[C@@H]1CC[C@@H]2O` (stereo partly drawn) [Example 21, 10-(3,17β-dihydroxyestra-1,3,5(10)-trien-11β-yl)-2-(4,4,5,5,5-pentafluoropentyl)decanoic Acid], which inhibition in vivo at 10 mg/kg is on record?
A: Its inhibition in vivo at 10 mg/kg is 99%.

Q: How did the inhibition in vivo at 10 mg/kg turn out when `C[C@]12CC[C@@H]3c4ccc(O)cc4C[C@@H](CCCCCCCCC(CCCC(F)(F)C(F)(F)C(F)(F)C(F)(F)F)C(=O)O)[C@H]3[C@@H]1CC[C@@H]2O` (stereo partly drawn) [Example 15, 10-[3,17β-dihydroxyestra-1,3,5(10)-trien-7α-yl]-2-(4,4,5,5,6,6,7,7,7-nonafluoroheptyl)decanoic Acid] was run?
A: Its inhibition in vivo at 10 mg/kg is 96%.

Q: `C[C@]1(c2ccc(O)cc2)CCc2cc(O)ccc2C1CCCCCCCCC(CCCC(F)(F)C(F)(F)F)C(=O)O` (mixture of isomers) [Example 5, 10-[(1RS, 2RS)-6-hydroxy-2-(4-hydroxyphenyl)-2-methyl-1,2,3,4-tetrahydro-1-naphthyl]-2-(4,4,5,5,5-pentafluoropentyl)decanoic Acid] was tested. Which inhibition in vivo at 10 mg/kg did it give?
A: Its inhibition in vivo at 10 mg/kg is 67%.

Q: `C[C@]12CC[C@@H]3c4ccc(O)cc4C[C@@H](CCCCCCCC[C@H](CCCC(F)(F)C(F)(F)C(F)(F)C(F)(F)F)C(=O)O)[C@H]3[C@@H]1CC[C@@H]2O` [Example 37, (2R)-10-(3,17β-dihydroxyestra-1,3,5(10)-trien-7α-yl)-2-(4,4,5,5,6,6,7,7,7-nonafluoroheptyl)decanoic Acid] was tested. Which inhibition in vivo at 10 mg/kg did it give?
A: Its inhibition in vivo at 10 mg/kg is 101%.

Q: How did the inhibition in vivo at 10 mg/kg turn out when `C[C@]12CC[C@@H]3c4ccc(O)cc4C[C@@H](CCCCCCCCC[S+]([O-])CCCC(F)(F)C(F)(F)F)[C@H]3[C@@H]1CC[C@@H]2O` (some centres unmarked) [ICI182780, reference compound] was run?
A: The inhibition in vivo at 10 mg/kg was 51%.

Q: `C[C@]12CC[C@@H]3c4ccc(O)cc4C[C@@H](CCCCCCCCC(CCCC(F)(F)C(F)(F)F)C(=O)O)[C@H]3[C@@H]1CC[C@@H]2O` (stereo partly drawn) [Example 14, 10-[3,17β-dihydroxyestra-1,3,5(10)-trien-7α-yl]-2-(4,4,5,5,5-pentafluoropentyl)decanoic Acid] was tested. Which inhibition in vivo at 10 mg/kg did it give?
A: The inhibition in vivo at 10 mg/kg was 87%.

Q: `O=C(O)C(CCCCCCCCCCc1c(-c2ccc(O)cc2)ccc2cc(O)ccc12)CCCC(F)(F)C(F)(F)F` (centres unmarked) [Example 27, 12-[6-hydroxy-2-(4-hydroxyphenyl)naphth-1-yl]-2-(4,4,5,5,5-pentafluoropentyl)dodecanoic Acid] was tested. Which inhibition in vivo at 10 mg/kg did it give?
A: The inhibition in vivo at 10 mg/kg was 64%.

Q: `C[C@]12C[C@H](CCCCCCCCCC(CCC(F)(F)C(F)(F)C(F)(F)C(F)(F)F)C(=O)O)[C@@H]3c4ccc(O)cc4CC[C@H]3[C@@H]1CC[C@@H]2O` (stereo partly drawn) [Example 20, 11-(3,17β-dihydroxyestra-1,3,5(10)-trien-11β-yl)-2-(3,3,4,4,5,5,6,6,6-nonafluorohexyl)undecanoic Acid] was tested. Which inhibition in vivo at 10 mg/kg did it give?
A: The inhibition in vivo at 10 mg/kg was 94%.

Q: Which inhibition in vivo at 10 mg/kg does the source give for `O=C(O)C(CCCCCCCCCCc1c(-c2ccc(O)cc2C(F)(F)F)ccc2cc(O)ccc12)CCCC(F)(F)C(F)(F)F` (centres unmarked) [Example 32, 12-[6-hydroxy-2-(4-hydroxy-2-trifluoromethylphenyl)naphth-1-yl]-2-(4,4,5,5,5-pentafluoropentyl)-dodecanoic Acid] here?
A: Its inhibition in vivo at 10 mg/kg is 73%.

Q: With `C[C@]12C[C@H](CCCCCCCCCC(CCCC(F)(F)C(F)(F)F)C(=O)O)[C@@H]3c4ccc(O)cc4CC[C@H]3[C@@H]1CC[C@@H]2O` (stereo partly drawn) [Example 24, 11-(3,17β-dihydroxyestra-1,3,5(10)-trien-11β-yl)-2-(4,4,5,5,5-pentafluoropentyl)undecanoic Acid] as the compound, how does the inhibition in vivo at 10 mg/kg read?
A: Its inhibition in vivo at 10 mg/kg is 98%.

Q: `C[C@]12CC[C@@H]3c4ccc(O)cc4C[C@@H](CCCCCCCCC(CCCCCC(F)(F)C(F)(F)F)C(=O)O)[C@H]3[C@@H]1CC[C@@H]2O` (stereo partly drawn) [Example 17, 10-[3,17β-dihydroxyestra-1,3,5(10)-trien-7α-yl]-2-(6,6,7,7,7-pentafluoroheptyl)decanoic Acid] was tested. Which inhibition in vivo at 10 mg/kg did it give?
A: Its inhibition in vivo at 10 mg/kg is 94%.
